Common to all, as to type: biochemical
For one experiment, the target named is PKC-γ (Homo sapiens, UniProt P05129). In words: Protein Kinase C Histone-Based Assay. As to conditions: histone III substrate. How it is done: (§1) Compounds were evaluated for PKC isozyme selectivity using histone III as the substrate. PKC isozymes α, β-II or γ were added to a reaction mixture that contained 20 mM HEPES, (pH 7.4), 940 μM CaCl2, 10 mM MgCl2, 1 mM EGTA. 100 μg/mL phosphatidylserine, 20 μg/mL diacylglycerol, 30 μM ATP, […] [^33P]ATP and 200 μg/mL histone III. The reaction was incubated for 10 min at 30° C. Reactions were terminated by TCA precipitation and spotting on Whatman P81 filters. Filters were washed in 75 mM phosphoric acid and the radioactivity quantified by liquid scintillation counting.

Another experiment concerns the target PKC-βII (Homo sapiens, UniProt P05771). In words: Protein Kinase C Histone-Based Assay. As to conditions: histone III substrate. How it is done:
as §1

For a further experiment, the target named is PKC-α (Homo sapiens, UniProt P17252). Nature of the experiment: Protein Kinase C Histone-Based Assay. As to conditions: histone III substrate. The procedure:
as §1

The target in experiment [1] is T1, recombinant rabbit GSK-3β protein (Oryctolagus cuniculus, UniProt G1T8E2).
T1 construct: purchased New England Biolabs
Nature of the experiment: Glycogen Synthase Kinase-3 Assay (33P-ATP phosphorylation of PPI-2). The procedure: Compounds were tested for the ability to inhibit recombinant rabbit GSK-3β protein using the following protocol. The test compound was added to a reaction mixture containing Protein Phosphatase Inhibitor-2 (PPI-2) (Calbiochem) (45 ng), rabbit GSK-3β protein (New England Biolabs) (0.75 units) and ^33P-ATP (1 μCi) in 50 mM Tris-HCl (pH 8.0), 10 mM MgCl2, 0.1% BSA, 1 mM DTT and 100 μM Sodium Vanadate. The mixture was reacted for 90 minutes at 30° C. to allow phosphorylation of the PPI-2 protein and then the protein in the reaction was precipitated using 10% TCA. The precipitated protein was collected on filter plates (MultiScreen-DV/Millipore), which were subsequently washed. Finally, the radioactivity was quantified using a TopCount Scintillation Counter (Packard). […] Staurosporine or Valproate, known inhibitors of GSK-3β, were used as a positive control for screening.

T1 sequence (G1T8E2 1-432): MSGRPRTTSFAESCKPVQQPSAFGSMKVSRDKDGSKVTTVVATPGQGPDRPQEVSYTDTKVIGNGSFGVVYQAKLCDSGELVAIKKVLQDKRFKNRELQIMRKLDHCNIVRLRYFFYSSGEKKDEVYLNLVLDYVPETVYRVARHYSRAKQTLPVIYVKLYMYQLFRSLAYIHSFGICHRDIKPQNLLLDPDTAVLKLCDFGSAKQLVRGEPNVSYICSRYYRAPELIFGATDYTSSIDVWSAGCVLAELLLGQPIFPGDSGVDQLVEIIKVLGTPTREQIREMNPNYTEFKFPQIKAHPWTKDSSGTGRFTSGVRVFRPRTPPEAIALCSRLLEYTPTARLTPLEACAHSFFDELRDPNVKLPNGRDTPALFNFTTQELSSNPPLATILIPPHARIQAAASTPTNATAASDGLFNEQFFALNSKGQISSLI
Sequence of PKC-βII (P05771 1-673 isoform P05771-2): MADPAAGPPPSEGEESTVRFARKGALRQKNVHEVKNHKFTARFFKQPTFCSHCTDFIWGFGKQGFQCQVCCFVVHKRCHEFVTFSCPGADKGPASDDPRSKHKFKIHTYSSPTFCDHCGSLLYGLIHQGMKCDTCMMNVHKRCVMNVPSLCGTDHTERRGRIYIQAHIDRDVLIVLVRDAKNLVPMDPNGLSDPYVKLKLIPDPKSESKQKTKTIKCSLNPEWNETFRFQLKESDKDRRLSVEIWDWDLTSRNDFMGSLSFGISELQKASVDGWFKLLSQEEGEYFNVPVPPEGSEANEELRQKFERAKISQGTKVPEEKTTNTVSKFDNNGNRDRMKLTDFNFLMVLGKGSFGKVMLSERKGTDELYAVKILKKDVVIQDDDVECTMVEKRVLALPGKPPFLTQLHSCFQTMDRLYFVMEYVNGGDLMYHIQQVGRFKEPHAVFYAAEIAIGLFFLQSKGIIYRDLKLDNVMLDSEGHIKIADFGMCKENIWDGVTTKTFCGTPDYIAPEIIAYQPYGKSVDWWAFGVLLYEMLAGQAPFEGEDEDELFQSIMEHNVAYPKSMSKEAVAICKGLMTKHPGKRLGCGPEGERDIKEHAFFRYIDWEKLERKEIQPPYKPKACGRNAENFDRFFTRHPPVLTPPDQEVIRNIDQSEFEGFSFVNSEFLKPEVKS

As for `COCCCn1cc(C2=C(c3ccccc3OC)C(=O)NC2=O)c2cnccc21` [Cpd 1, 3-(2-Methoxyphenyl)-4-[1-(3-methoxypropyl)-1H-pyrrolo[3,2-c]pyridin-3-yl]-1H-pyrrole-2,5-dione], the inhibition (in general, the share of the control response that was lost under treatment) at 10 µM on PKC-γ (@10 μM) came to 25%; on PKC-α (@10 μM), 31%. In addition, testing at 1 µM against PKC-βII gave an inhibition of 22%. Besides, the IC50 – broadly, the concentration at which inhibition is half-maximal – in experiment [1] came to 1.8 nM.

On to `COCCCn1cc(C2=C(c3ccccc3Cl)C(=O)NC2=O)c2cnccc21` [Cpd 2, 3-(2-Chlorophenyl)-4-[1-(3-methoxypropyl)-1H-pyrrolo[3,2-c]pyridin-3-yl]-1H-pyrrole-2,5-dione], for which the IC50 against PKC-γ is 4210 nM; at PKC-α it was 2510 nM; in experiment [1], 20 nM. The compound also came in with an inhibition at 1 µM on PKC-βII of 28%.

These data come from patent US7488826B2, “Substituted pyrroline kinase inhibitors” (Janssen Pharmaceutica N.V., priority 2003, dated 2009).
